Consider one compound from patent publication US10336749B2, “Method for the preparation of (4S)-4-(4-cyano-2-methoxyphenyl)-5-ethoxy-2,8-dimethyl-1,4-dihydro-1-6-naphthyridine-3-carboxamide and the purification thereof for use as an active pharmaceutical ingredient” (BAYER PHARMA AKTIENGESELLSCHAFT, priority 2015, dated 2019).

The nature of data set [1]: Stability and moisture absorption: storage at 85% and 97% rel. humidity, evaluated by DSC, TGA and XRPD. To be noted: 25° C.; for mass change: after 12 months. Type of data set: physicochemical. How it is done: Stability and Moisture Absorption Samples of compound of the formula (I) in crystalline form of polymorph I were stored at 85% and 97% rel. humidity (25° C.). The samples were evaluated after 12 months by DSC, TGA and XRPD. After 12 months, a mass change of <0.1% is observed in both cases. […] According to DSC, TGA and XRPD, no difference exists in compound of the formula (I) in crystalline form of polymorph I.

Data set [2] is described as follows: Storage stability of crystalline polymorph I. Type of data set: physicochemical.
The mark [3] stands for this setting: 85% and 97% rel. humidity, 12 months.

SMILES strings stand for the structures.

Regarding `CCOc1ncc(C)c2c1[C@H](c1ccc(C#N)cc1OC)C(C(N)=O)=C(C)N2` [(4S)-4-(4-Cyano-2-methoxyphenyl)-5-ethoxy-2,8-dimethyl-1,4-dihydro-1,6-naphthyridine-3-carboxamide], the absorption of water entry in data set [1] (setting [3]) is given as “no significant absorption of water”. Besides, the “difference according to DSC, TGA and XRPD after storage” value in data set [1] (setting [3]) is “no difference”. The mass change in data set [1] (stored at 85% rel. humidity) and in data set [1] (stored at 97% rel. humidity) was under 0.1% throughout. In data set [2] (crystalline form of polymorph I), the “storage time without any problem” value was over 2 years. Also, in data set [2] (even at high atmospheric humidity), the stability properties result was “very good stability properties”.
